In US10123984B2, “Neprilysin inhibitors” (THERAVANCE BIOPHARMA R&D IP, LLC, priority 2011, dated 2018):

Assays:
NEP [1] = biological target: T1, NEP (Homo sapiens (Human), UniProt P08473); experiment: Assay 1: in vitro enzyme inhibition assay at human NEP (fluorogenic peptide substrate); type: biochemical; settings: pKi values at human NEP
Procedure: The assays were performed in 384-well white opaque plates at 37° C. using the fluorogenic peptide substrates at a concentration of 10 μM in Assay Buffer (NEP: 50 mM HEPES, pH 7.5, 100 mM NaCl, 0.01% polyethylene glycol sorbitan monolaurate (Tween-20), 10 μM ZnSO4; ACE: 50 mM HEPES, pH 7.5, 100 mM NaCl, 0.01% Tween-20, 1 μM ZnSO4).
Test compounds were assayed over the range of concentrations from 10 μM to 20 pM. Test compounds were added to the enzymes and incubated for 30 minute at 37° C. prior to initiating the reaction by the addition of substrate. Reactions were terminated after 20 minutes of incubation at 37° C. by the addition of glacial acetic acid to a final concentration of 3.6% (v/v).
Inhibition constants were obtained by nonlinear regression of the data using the equation (GraphPad Software, Inc., San Diego, Calif.): v=v0/[1+(I/K′)] where v is the reaction rate, v0 is the uninhibited reaction rate, I is the inhibitor concentration and K′ is the apparent inhibition constant.

NEP [2] = biological target: T1, NEP; settings: relative to 21a (succinic acid substituent); quoted from Ksander et al.; cited from earlier work
[3] = comparative examples, exact values

| Compound | Ki (NEP [1]; [3]) | further results |
| --- | --- | --- |
| O=C(O)CC(=O)N[C@H](Cc1ccc(-c2ccccc2)cc1)CC(O)C(=O)O (stereo partly drawn) [Comparative Compound C, (R)-5-Biphenyl-4-yl-4-(2-carboxyacetylamino)-2-hydroxypentanoic Acid] | 200 nM | – |
| O=C(O)CCC(=O)N[C@H](Cc1ccc(-c2ccccc2)cc1)CC(O)C(=O)O (stereo partly drawn) [Comparative Compound D, (R)-5-Biphenyl-4-yl-4-(3-carboxypropionylamino)-2-hydroxypentanoic Acid] | 39.8 nM | – |
| O=C(O)CCCC(=O)N[C@H](Cc1ccc(-c2ccccc2)cc1)CC(O)C(=O)O (stereo partly drawn) [Comparative Compound E, (R)-5-Biphenyl-4-yl-4-(4-carboxybutyrylamino)-2-hydroxypentanoic Acid] | 50.1 nM | – |
| O=C(O)CC(=O)N[C@H](Cc1ccc(-c2ccccc2)cc1)C[C@@H](CO)C(=O)O [Comparative Compound F, (2S,4S)-5-Biphenyl-4-yl-4-(2-carboxy-acetylamino)-2-hydroxymethylpentanoic Acid] | 6.31 nM | – |
| O=C(O)CCC(=O)N[C@H](Cc1ccc(-c2ccccc2)cc1)C[C@@H](CO)C(=O)O [Comparative Compound G, (2S,4S)-5-Biphenyl-4-yl-4-(3-carboxy-propionylamino)-2-hydroxymethylpentanoic Acid] | 1 nM | – |
| O=C(O)CCCC(=O)N[C@H](Cc1ccc(-c2ccccc2)cc1)C[C@@H](CO)C(=O)O [Comparative Compound H, (2S,4S)-5-Biphenyl-4-yl-4-(4-carboxy-butyrylamino)-2-hydroxymethylpentanoic Acid] | 2.51 nM | – |
| O=C(O)CC(=O)N[C@H](Cc1ccc(-c2cccc(Cl)c2)cc1)C[C@@H](O)C(=O)O [Comparative Compound I, (2R,4R)-4-(2-Carboxy-acetylamino)-5-(3′-chloro-biphenyl-4-yl)-2-hydroxy-pentanoic Acid] | 3.98 nM | – |
| O=C(O)CCC(=O)N[C@H](Cc1ccc(-c2cccc(Cl)c2)cc1)C[C@@H](O)C(=O)O [Comparative Compound J, (2R,4R)-4-(3-Carboxy-propionylamino)-5-(3′-chloro-biphenyl-4-yl)-2-hydroxy-pentanoic Acid] | 0.316 nM | – |
| O=C(O)CCCC(=O)N[C@H](Cc1ccc(-c2cccc(Cl)c2)cc1)C[C@@H](O)C(=O)O [Comparative Compound K, (2R,4R)-4-(4-Carboxy-butyrylamino)-5-(3′-chloro-biphenyl-4-yl)-2-hydroxy-pentanoic Acid] | 0.501 nM | – |
| O=C(O)C(=O)N[C@H](Cc1ccc(-c2ccccc2)cc1)CC(O)C(=O)O (stereo partly drawn) [Example 1, (R)-5-Biphenyl-4-yl-2-hydroxy-4-(oxalylamino)pentanoic Acid] | 12.6 nM | – |
| O=C(O)C(=O)N[C@H](Cc1ccc(-c2cccc(Cl)c2)cc1)C[C@@H](O)C(=O)O [Example 2A, (2R,4R)-5-(3′-Chlorobiphenyl-4-yl)-2-hydroxy-4-(oxalylamino)pentanoic Acid] | 0.2 nM | – |
| O=C(N[C@H](Cc1ccc(-c2cccc(Cl)c2)cc1)C[C@@H](O)C(=O)O)C(=O)OCCC(F)(F)F [Example 2N, (2R,4R)-5-(3′-Chlorobiphenyl-4-yl)-2-hydroxy-4-[(3,3,3-trifluoropropoxyoxalyl)-amino]pentanoic Acid] | – | pKi (NEP [1]; reported as ranges): ≥9 |
| CC(C)COC(=O)C(=O)N[C@H](Cc1ccc(-c2cc(Cl)ccc2Cl)cc1)C[C@@H](O)C(=O)O [Example 3D, (2R,4R)-5-(2′,5′-Dichlorobiphenyl-4-yl)-2-hydroxy-4-(isobutoxyoxalylamino)-pentanoic Acid] | – | Ki (NEP [1]; reported as ranges): ≤ 1 nM |
| O=C(O)C(=O)N[C@H](Cc1ccc(-c2ccccc2F)cc1)C[C@@H](CO)C(=O)O [Example 7B, (2S,4S)-5-(2′-Fluorobiphenyl-4-yl)-2-hydroxymethyl-4-(oxalylamino)pentanoic Acid] | – | Ki (NEP [1]; reported as ranges): ≤ 1 nM |
| O=C(O)C(=O)NN(Cc1ccc(-c2cc(Cl)ccc2F)cc1)C[C@@H](O)C(=O)O [Example 14A, (R)-3-[N-(5′-Chloro-T-fluorobiphenyl-4-ylmethyl)-N-oxalylhydrazino]-2-hydroxypropionic Acid] | – | Ki (NEP [1]; reported as ranges): ≤ 1 nM |
| CC(C)COC(=O)C(=O)NN(Cc1ccc(-c2cc(Cl)ccc2F)cc1)C[C@@H](O)C(=O)O [Example 14C, (R)-3-[N-(5′-Chloro-2′-fluorobiphenyl-4-ylmethyl)-N′-isobutoxyoxalylhydrazino]-2-hydroxypropionic Acid] | – | Ki (NEP [1]; reported as ranges): 1.26 to 10 nM |
| C[C@H](C[C@@H](Cc1ccc(-c2ccccc2)cc1)NC(=O)CCCC(=O)O)C(=O)O [Example 21e] | – | decrease in activity (NEP [2]): 18 fold |
| C[C@H](C[C@@H](Cc1ccc(-c2ccccc2)cc1)NC(=O)CCCCC(=O)O)C(=O)O [Example 21f] | – | decrease in activity (NEP [2]): 65 fold |
| C[C@H](CC(Cc1ccc(-c2ccccc2)cc1)NC(=O)CC(=O)O)C(=O)O (stereo partly drawn) [Example 21g] | – | decrease in activity (NEP [2]): 18 fold |
| (2R,4R)-5-(3,3′-Dichlorobiphenyl-4-yl)-2-hydroxy-4-(oxalylamino)pentanoic acid ethyl ester [Example 5-17] | – | pKi (NEP [1]; reported as ranges): ≥9 |
| (R)-3-N-(3,5′-Dichloro-2′-fluorobiphenyl-4-ylmethyl)-N′-oxalyl-hydrazinol-2-hydroxypropionic acid [Example 5-13] | – | pKi (NEP [1]; reported as ranges): ≥9 |
